# Measured values as given in patent US7556939B2, “Identification and characterization of racemases, definition of protein signatures, and a test for detecting D-amino acid and for screening molecules capable of inhibiting the activity of racemase, especially proline racemase” (Institut Pasteur, priority 2003, dated 2009).
# Where “and” joins values, the source holds several entries; their conditions need not be identical. Equal values may be shown once.
# What was measured:
# D-AAO = target: T1, D-AAO (Sus scrofa, UniProt P00371); test: D-AAO/HRP microplate test for detection of D-amino acids; assay type: biochemical, swine
# T1 construct: purchased Sigma A-5222; host or cells: swine kidney
# Procedure: • (3) Prepare a mixture containing the enzymes (D-AAO/HRP Mix), as follows: The amounts are given for one well, provided that the final volume will be 100 μl with the racemase products or the substrate:
# This mixture is kept in the ice until use. • (4) The quantitation reaction starts when 13 μl of D-AAO/HRP mix is added to the reaction well. • (5) The microplate is covered with an adhesive coverlid and it is left in the dark at 37° C. between […] and 2 hours. The reaction can be monitored by eye whenever a color gradient matches the D-amino acid concentration of the standard dilutions. • (6) The microplate is read with a microplate spectrophotometer using a filter of at 490 nm.
# The D-AAO/HRP test described here above can also be used for this purpose with slight modifications. For that purpose, the racemase reaction step should be skipped and the microplate test should start straightforward at the II-1-2.1-2 step described above with the following remarks:
# 1) Standard: It should not be an equimolar mixture of D- and L-amino acid, but rather a serial dilution of D-Amino acids. The choice of amino acid is made according to the interest of the D-amino acid under investigation. The final volume in wells should be of 87 μl.
# 2) Negative control: It is made with the L-enantiomer of the D-amino acid under investigation. The final volume should be 87 μl.
# 3) Blank: It is made with 87 μl buffer*. (See paragraph II.1.1 Materials.)
# 4) Samples: The samples to be tested should be adjusted to pH 8,3 with buffer* and their final volumes should be of 87 μl per well.
# Obs: Standards, negative controls, samples to test and blanks should be made in duplicates. They are dispensed into the wells of the microplate.
# 5) Then, the procedure follows steps 3) to 6), as above.
# Different L- and D-amino acids were tested, namely Tyrosine (Tyr), Valine (Val), Threonine (Thr), Glutamic acid (Glu), Lysine (Lys) and Tryptophan (Try).
# TcPRAC = target: T2, TcPRAC (Trypanosoma cruzi, UniProt Q4DA80); conditions: cited from earlier work
# T2 construct: made in house
# [1] = Stability of recombinant proline racemases under different storage conditions; assay type: physicochemical
# Procedure: After purification on nickel-nitrilotriacetic acid agarose column, recombinant proteins were kept for 10 days in nickel column buffer (20 mM Tris/500 mM NaCl/500 mM imidazol, pH 8.0) at room temperature (RT) or at +4° C., or either diluted in 50% glycerol and maintained at −20° C. (Gly/−20° C.) or in optimum pH buffer (NaOAc, pH 6.0) at 4° C. Recombinant enzymes were precipitated in (NH4)2SO4 and kept in solution at 4° C. or pellet dried at −20° C. Racemase assays were performed for 30 min at 37° C.
# [2] = Racemization assays, polarimetric; assay type: biochemical; conditions: for % racemization / Optical rotation: 5 μg protein, 40 mM L-proline, pH 6.0, 37° C.
# Procedure: The reaction was stopped by incubating for 10 min at 80° C. and freezing. Water (1 ml) was then added, and the optical rotation was measured in a polarimeter 241 MC (Perkin Elmer, Montigny le Bretonneux, France) at a wavelength of 365 nm, in a cell with a path length of 10 cm, at a precision of 0.001 degree. […] All reagents were purchased from Sigma.
# Optical rotation was measured and % of racemization was determined as described in Example 5.
# Optical rotation was measured at different times and % of racemization was determined as described in Example 5.
# Trypanosoma cruzi = test: Immunization of mice and infectious challenge with live Trypanosoma cruzi; assay type: in vivo; conditions: mice, sub-mitogenic doses
# [3] = D-enantiomers, 6.25 mM, duplicate wells
# [4] = L-enantiomers, 12.5 mM, duplicate wells
# T1 sequence (P00371 whole entry): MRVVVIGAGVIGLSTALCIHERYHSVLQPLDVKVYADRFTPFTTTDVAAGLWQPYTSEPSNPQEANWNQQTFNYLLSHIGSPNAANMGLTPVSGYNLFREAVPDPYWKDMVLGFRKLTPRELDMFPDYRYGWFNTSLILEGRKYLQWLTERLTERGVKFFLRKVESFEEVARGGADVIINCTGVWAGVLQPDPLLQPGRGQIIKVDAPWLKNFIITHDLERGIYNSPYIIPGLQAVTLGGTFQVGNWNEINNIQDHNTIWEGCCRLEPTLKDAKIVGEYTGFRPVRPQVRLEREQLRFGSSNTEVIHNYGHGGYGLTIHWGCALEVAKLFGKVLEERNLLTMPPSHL
molecule,measurement,setting,value
"N[C@@H](CCC(=O)O)C(=O)O [D-Glu, Glutamic acid]",Optical density at 490 nm,D-AAO; [3],0.147 and 0.116
"NCCCC[C@H](N)C(=O)O [D-Lys, Lysine]",Optical density at 490 nm,D-AAO; [3],0.243 and 0.157
"C[C@@H](O)[C@H](N)C(=O)O [D-Thr, Threonine]",Optical density at 490 nm,D-AAO; [3],0.215 and 0.157
"N[C@@H](Cc1c[nH]c2ccccc12)C(=O)O [D-Try, Tryptophan]",Optical density at 490 nm,D-AAO; [3],0.615 and 0.662
"N[C@@H](Cc1ccc(O)cc1)C(=O)O [D-Tyr, Tyrosine]",Optical density at 490 nm,D-AAO; [3],1.317 and 0.991
"CC(C)[C@H](N)C(=O)O [D-Val, Valine]",Optical density at 490 nm,D-AAO; [3],1.683 and 1.612
"O=C(O)[C@H]1CCCN1 [D-pro, D-proline]",Optical density at 490 nm,D-AAO; 0.05 mM,0.173
same,Optical density at 490 nm,D-AAO; 0.09 mM,0.213 and 0.215
same,Optical density at 490 nm,D-AAO; 0.19 mM,0.308 and 0.32
same,Optical density at 490 nm,D-AAO; 0.39 mM,0.496 and 0.504
same,Optical density at 490 nm,D-AAO; 0.77 mM,0.809 and 0.824
same,Optical density at 490 nm,D-AAO; 1.55 mM,1.234 and 1.221
same,Optical density at 490 nm,D-AAO; 3.09 mM,1.716 and 1.879
same,Optical density at 490 nm,D-AAO; 6.19 mM,1.983 and 1.949
same,Optical density at 490 nm,D-AAO; 12.37 mM,1.814 and 1.976
same,Optical density at 490 nm,D-AAO; 24.75 mM,1.757 and 1.885
same,Optical density at 490 nm,D-AAO; 49.5 mM,1.961 and 2.004
"N[C@@H](CCC(=O)O)C(=O)O [L-Glu, Glutamic acid]",Optical density at 490 nm,D-AAO; [4],0.131 and 0.141
"NCCCC[C@H](N)C(=O)O [L-Lys, Lysine]",Optical density at 490 nm,D-AAO; [4],0.125 and 0.131
"C[C@@H](O)[C@H](N)C(=O)O [L-Thr, Threonine]",Optical density at 490 nm,D-AAO; [4],0.124 and 0.128
"N[C@@H](Cc1c[nH]c2ccccc12)C(=O)O [L-Try, Tryptophan]",Optical density at 490 nm,D-AAO; [4],0.131 and 0.138
"N[C@@H](Cc1ccc(O)cc1)C(=O)O [L-Tyr, Tyrosine]",Optical density at 490 nm,D-AAO; [4],0.193 and 0.141
"CC(C)[C@H](N)C(=O)O [L-Val, Valine]",Optical density at 490 nm,D-AAO; [4],0.135 and 0.129
NC(=O)CI [iodoacetamide],TcPRAC enzymatic activity after alkylation,TcPRAC,abolished
O=C(O)CI [iodoacetate],TcPRAC enzymatic activity after alkylation,TcPRAC,abolished
"rTcPRACA: recombinant C-terminal His6-tagged T. cruzi proline racemase, 45 kDa secreted isoform, produced in E. coli (protein, left off: small tags and cut ends, recombinant C-terminal His6-tagged T. cruzi proline racemase, 45 kDa secreted isoform, produced in E. coli) GQEKLLFDQKYKIIKGEKKEKKKNQRANRREHQQKREIMRFKKSFTCIDMHTEGEAARIVTSGLPHIPGSNMAEKKAYLQENMDYLRRGIMLEPRGHDDMFGAFLFDPIEEGADLGMVFMDTGGYLNMCGHNSIAAVTAAVETGIVSVPAKATNVPVVLDTPAGLVRGTAHLQSGTESEVSNASIINVPSFLYQQDVVVVLPKPYGEVRVDIAFGGNFFAIVPAEQLGIDISVQNLSRLQEAGELLRTEINRSVKVQHPQLPHINTVDCVEIYGPPTNPEANYKNVVIFGNRQADRSPCGTGTSAKMATLYAKGQLRIGETFVYESILGSLFQGRVLGEERIPGVKVPVTKDAEEGMLVVTAEITGKAFIMGFNTMLFDPTDPFKNGFTLKQ",% of preservation of proline racemase activity,"[1]; 10 days, 50% glycerol, −20° C. (Gly/−20° C.)",62.9%
same,% of preservation of proline racemase activity,"[1]; 10 days, NaOAc pH 6, 4° C.",31.0%
same,% of preservation of proline racemase activity,"[1]; 10 days, column buffer pH 8.0, +4° C.",65% and 66.5%
same,% of preservation of proline racemase activity,"[1]; 10 days, column buffer pH 8.0, RT",16.0%
same,loss of activity,"[1]; 10 days, room temperature, 0.5 M imidazol buffer pH 8.0",84%
same,% of preservation of proline racemase activity,"[1]; (NH4)2SO4 precipitated, in solution, 4° C.",53.9%
same,% of preservation of proline racemase activity,"[1]; (NH4)2SO4 precipitated, pellet dried, −20° C.",100.0%
same,% of preservation of proline racemase activity,"[1]; CTRL, freshly purified proteins",100.0%
same,temperature of maximal enzyme activity,[2],37 °C
same,% racemization,[2]; 0 min,0%
same,Optical rotation,[2]; 0 min,−0.385
same,enzyme activity after heating,[2]; 5 min at 80° C.,abolished
same,% racemization,[2]; 10 min,22%
same,Optical rotation,[2]; 10 min,−0.300
same,% racemization,[2]; 30 min,58%
same,Optical rotation,[2]; 30 min,−0.162
same,% racemization,[2]; 60 min,77%
same,Optical rotation,[2]; 60 min,−0.088
"TcPRAC: Trypanosoma cruzi proline racemase, B cell mitogen, used for immunization of mice (protein, left off: small tags and cut ends, Trypanosoma cruzi proline racemase, B cell mitogen, used for immunization of mice) GQEKLLFDQKYKIIKGEKKEKKKNQRANRREHQQKREIMRFKKSFTCIDMHTEGEAARIVTSGLPHIPGSNMAEKKAYLQENMDYLRRGIMLEPRGHDDMFGAFLFDPIEEGADLGMVFMDTGGYLNMCGHNSIAAVTAAVETGIVSVPAKATNVPVVLDTPAGLVRGTAHLQSGTESEVSNASIINVPSFLYQQDVVVVLPKPYGEVRVDIAFGGNFFAIVPAEQLGIDISVQNLSRLQEAGELLRTEINRSVKVQHPQLPHINTVDCVEIYGPPTNPEANYKNVVIFGNRQADRSPCGTGTSAKMATLYAKGQLRIGETFVYESILGSLFQGRVLGEERIPGVKVPVTKDAEEGMLVVTAEITGKAFIMGFNTMLFDPTDPFKNGFTLKQ",specific antibody responses directed to TcPRAC,Trypanosoma cruzi,high levels of specific antibody responses
same,immunoprotection against infectious challenge,Trypanosoma cruzi; challenge with live Trypanosoma cruzi,high levels of immunoprotection
